From ChEMBL document CHEMBL3217509, “Discovery of an HIV integrase inhibitor with an excellent resistance profile” (Medchemcomm, 2013)
Calls of active or inactive are those of the source. The calls are words filed in the database; no cut-off is given here.

Columns and labels:
[1] = Inhibition of DNA polymerase alpha (unknown origin); set-up: species or system Homo sapiens
[2] = Inhibition of DNA polymerase beta (unknown origin); set-up: species or system Homo sapiens
[3] = system: Human immunodeficiency virus 1; assay: Antiviral activity against HIV1 UG92037 infected in human PBMC after 5 days by human JC53BL cell-based beta-galactosidase reporter gene assay; format: functional, organism-based; conditions: Human immunodeficiency virus 1, UG92037, JC53BL, 120 h
[4] = system: Rattus norvegicus; assay: Toxicity in rat assessed as histopathological abnormalities at 25 times antiviral IC50 administered for 7 days; format: organism-based; conditions: in vivo, 168 h
[5] = Volume of distribution at steady state in dog at 0.1 mg/kg, iv; format: ADME, organism-based, Canis lupus familiaris; set-up: dose 0.1 mg/kg, route intravenous; conditions: in vivo, read-out: Vdss
[6] = Clearance in healthy human at 100 ug, iv; format: ADME, organism-based; conditions: in vivo
[7] = system: Human immunodeficiency virus 1; assay: Resistance ratio of IC50 for MLV pseudotyped HIV1 NL4-3 expressing integrase G140S mutant to IC50 for MLV pseudotyped HIV1 NL4-3 expressing wild type integrase; format: functional
[8] = system: Human immunodeficiency virus 1; assay: Antiviral activity against HIV1 NL4-3 infected in human MT2 cells after 3 days by human JC53BL cell-based beta-galactosidase reporter gene assay; format: functional, organism-based; conditions: Human immunodeficiency virus 1, NL4-3, JC53BL, 72 h
[9] = Partition coefficient, pKa of the compound; format: physicochemical; conditions: octanol/water
[10] = system: Human immunodeficiency virus 1; assay: Resistance ratio of IC50 for MLV pseudotyped HIV1 NL4-3 expressing integrase V72I/F121Y/T125K/V151L mutant to IC50 for MLV pseudotyped HIV1 NL4-3 expressing wild type integrase; format: functional
[11] = Volume of distribution at steady state in healthy human at 100 ug, iv; format: ADME, organism-based; conditions: in vivo, read-out: Vdss
[12] = system: Human immunodeficiency virus 1; assay: Resistance ratio of IC50 for MLV pseudotyped HIV1 NL4-3 expressing integrase T97A mutant to IC50 for MLV pseudotyped HIV1 NL4-3 expressing wild type integrase; format: functional
[13] = Drug metabolism in iv dosed dog urine; format: ADME, organism-based, Canis lupus familiaris; conditions: in vivo
[14] = Half life in dog at 0.1 mg/kg, iv; format: ADME, organism-based, Canis lupus familiaris; set-up: dose 0.1 mg/kg, route intravenous; conditions: in vivo
[15] = Plasma protein binding in rat; format: ADME, cell-free; conditions: read-out: PPB
[16] = system: Human immunodeficiency virus 1; assay: Antiviral activity against HIV1 ZA97003 infected in human PBMC after 5 days by human JC53BL cell-based beta-galactosidase reporter gene assay; format: functional, organism-based; conditions: Human immunodeficiency virus 1, ZA97003, JC53BL, 120 h
[17] = Activity at UGT1A2 (unknown origin) assessed as metabolite metabolism; format: ADME; conditions: human
[18] = Intrinsic clearance in human liver microsomes assessed per mg of protein by LC-MS/MS analysis; format: ADME; conditions: read-out: CLH
[19] = system: Rattus norvegicus; assay: Clearance in rat at 2 mg/kg, po and 2 mg/kg, iv; format: ADME, organism-based; conditions: in vivo
[20] = Intrinsic clearance in human liver microsomes assessed per mg of protein by LC-MS/MS analysis in presence of UDPGA; format: ADME; conditions: read-out: CLH
[21] = Clearance in rat hepatocytes assessed per million of cells; format: ADME, cell-based, Hepatocyte; conditions: read-out: CLH
[22] = system: Human immunodeficiency virus 1; assay: Antiviral activity against HIV1 HT92596 infected in human PBMC after 5 days by human JC53BL cell-based beta-galactosidase reporter gene assay; format: functional, organism-based; conditions: Human immunodeficiency virus 1, HT92596, JC53BL, 120 h
[23] = Oral bioavailability in rat at 2 mg/kg; format: ADME, organism-based; conditions: in vivo
[24] = Intrinsic clearance in human hepatocytes assessed assessed per million of cells by LC-MS/MS analysis; format: ADME, cell-based, Hepatocyte; conditions: read-out: CLH
[25] = Clearance in rat liver microsomes assessed per mg of protein in presence of UDPGA; format: ADME; conditions: read-out: CLH
[26] = Volume of distribution at steady state in rat at 2 mg/kg, po and 2 mg/kg, iv; format: ADME, organism-based; conditions: in vivo, read-out: Vdss
[27] = system: Human immunodeficiency virus 1; assay: Resistance ratio of IC50 for MLV pseudotyped HIV1 NL4-3 expressing integrase G140S/Q148h mutant to IC50 for MLV pseudotyped HIV1 NL4-3 expressing wild type integrase; format: functional
[28] = system: Human immunodeficiency virus 1; assay: Resistance ratio of IC50 for MLV pseudotyped HIV1 NL4-3 expressing integrase V72I/F121Y/T125K mutant to IC50 for MLV pseudotyped HIV1 NL4-3 expressing wild type integrase; format: functional
[29] = system: Human immunodeficiency virus 1; assay: Antiviral activity against HIV1 NL4-3 infected in human PBMC after 5 days by human JC53BL cell-based beta-galactosidase reporter gene assay; format: functional, organism-based; conditions: Human immunodeficiency virus 1, NL4-3, JC53BL, 120 h
[30] = system: Human immunodeficiency virus 1; assay: Resistance ratio of IC50 for MLV pseudotyped HIV1 NL4-3 expressing integrase G140A mutant to IC50 for MLV pseudotyped HIV1 NL4-3 expressing wild type integrase; format: functional
[31] = target: Human immunodeficiency virus type 1 integrase (Human immunodeficiency virus 1, UniProt Q7ZJM1); assay: Inhibition of HIV1 HXB2 full length amino terminal 6-HIs tagged integrase expressed in Escherichia coli using [3H]thymidine-labeled DNA/biotinylated ds-DNA as substrate assessed as inhibition of strand transfer after 50 mins by scintillation proximity assay
Sequence of Human immunodeficiency virus type 1 integrase (Q7ZJM1 whole entry): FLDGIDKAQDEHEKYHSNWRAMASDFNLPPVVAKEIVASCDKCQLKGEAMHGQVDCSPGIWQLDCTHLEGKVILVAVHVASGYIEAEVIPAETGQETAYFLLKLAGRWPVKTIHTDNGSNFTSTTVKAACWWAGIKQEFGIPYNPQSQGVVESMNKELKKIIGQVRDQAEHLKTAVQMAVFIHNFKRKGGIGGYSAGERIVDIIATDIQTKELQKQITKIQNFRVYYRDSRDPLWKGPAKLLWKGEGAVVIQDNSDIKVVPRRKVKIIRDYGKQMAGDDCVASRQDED

[32] = Half life in healthy human at 100 ug, iv; format: ADME, organism-based; conditions: in vivo
[33] = system: Human immunodeficiency virus 1; assay: Resistance ratio of IC50 for MLV pseudotyped HIV1 NL4-3 expressing integrase T125K/F121Y mutant to IC50 for MLV pseudotyped HIV1 NL4-3 expressing wild type integrase; format: functional
[34] = system: Human immunodeficiency virus 1; assay: Resistance ratio of IC50 for MLV pseudotyped HIV1 NL4-3 expressing integrase N155H mutant to IC50 for MLV pseudotyped HIV1 NL4-3 expressing wild type integrase; format: functional
[35] = Clearance in dog hepatocytes assessed per million of cells; format: ADME, cell-based, Canis lupus familiaris, Hepatocyte; conditions: read-out: CLH
[36] = system: Human immunodeficiency virus 1; assay: Resistance ratio of IC50 for MLV pseudotyped HIV1 NL4-3 expressing integrase Q148K mutant to IC50 for MLV pseudotyped HIV1 NL4-3 expressing wild type integrase; format: functional
[37] = system: Human immunodeficiency virus 1; assay: Resistance ratio of IC50 for MLV pseudotyped HIV1 NL4-3 expressing integrase S153Y mutant to IC50 for MLV pseudotyped HIV1 NL4-3 expressing wild type integrase; format: functional
[38] = system: Human immunodeficiency virus 1; assay: Resistance ratio of IC50 for MLV pseudotyped HIV1 NL4-3 expressing integrase E92Q mutant to IC50 for MLV pseudotyped HIV1 NL4-3 expressing wild type integrase; format: functional
[39] = Half life in rat at 2 mg/kg, po and 2 mg/kg, iv; format: ADME, organism-based; conditions: in vivo
[40] = Plasma protein binding in human; format: ADME, cell-free; conditions: read-out: PPB (converted)
[41] = system: Human immunodeficiency virus 1; assay: Resistance ratio of IC50 for MLV pseudotyped HIV1 NL4-3 expressing integrase Q148H mutant to IC50 for MLV pseudotyped HIV1 NL4-3 expressing wild type integrase; format: functional
[42] = system: Human immunodeficiency virus 1; assay: Resistance ratio of IC50 for MLV pseudotyped HIV1 NL4-3 expressing integrase F121Y mutant to IC50 for MLV pseudotyped HIV1 NL4-3 expressing wild type integrase; format: functional
[43] = Inhibition of DNA polymerase gamma (unknown origin); set-up: species or system Homo sapiens
[44] = Clearance in rat liver microsomes assessed per mg of protein; format: ADME; conditions: read-out: CLH
[45] = system: Human immunodeficiency virus 1; assay: Antiviral activity against HIV1 HT92599 infected in human PBMC after 5 days by human JC53BL cell-based beta-galactosidase reporter gene assay; format: functional, organism-based; conditions: Human immunodeficiency virus 1, HT92599, JC53BL, 120 h
[46] = system: Human immunodeficiency virus 1; assay: Resistance ratio of IC50 for MLV pseudotyped HIV1 NL4-3 expressing integrase T66I/S153Y mutant to IC50 for MLV pseudotyped HIV1 NL4-3 expressing wild type integrase; format: functional
[47] = Clearance in dog liver microsomes assessed per mg of protein in presence of UDPGA; format: ADME, Canis lupus familiaris; conditions: read-out: CLH
[48] = Lipophilicity, log D of the compound; format: physicochemical; conditions: octanol/water
[49] = system: Human immunodeficiency virus 1; assay: Antiviral activity against HIV1 BaL infected in human PBMC after 5 days by human JC53BL cell-based beta-galactosidase reporter gene assay; format: functional, organism-based; conditions: Human immunodeficiency virus 1, BaL, 120 h
[50] = system: Human immunodeficiency virus 1; assay: Antiviral activity against HIV1 CMU06 infected in human PBMC after 5 days by human JC53BL cell-based beta-galactosidase reporter gene assay; format: functional, organism-based; conditions: Human immunodeficiency virus 1, CMU06, JC53BL, 120 h
[51] = system: Human immunodeficiency virus 1; assay: Antiviral activity against HIV1 UG94118 infected in human PBMC after 5 days by human JC53BL cell-based beta-galactosidase reporter gene assay; format: functional, organism-based; conditions: Human immunodeficiency virus 1, UG94118, JC53BL, 120 h
[52] = system: Human immunodeficiency virus 1; assay: Resistance ratio of IC50 for MLV pseudotyped HIV1 NL4-3 expressing integrase E92Q/N155H mutant to IC50 for MLV pseudotyped HIV1 NL4-3 expressing wild type integrase; format: functional
[53] = Cytotoxicity against human MT2 cells after 3 days by CellTitre-Glo assay; format: cell-based
[54] = system: Human immunodeficiency virus 1; assay: Antiviral activity against HIV1 SF162 infected in human PBMC after 5 days by human JC53BL cell-based beta-galactosidase reporter gene assay; format: functional, organism-based; conditions: Human immunodeficiency virus 1, SF162, JC53BL, 120 h
[55] = system: Human immunodeficiency virus 1; assay: Antiviral activity against HIV1 BR92004 infected in human PBMC after 5 days by human JC53BL cell-based beta-galactosidase reporter gene assay; format: functional, organism-based; conditions: Human immunodeficiency virus 1, BR92004, JC53BL, 120 h
[56] = system: Human immunodeficiency virus 1; assay: Inhibition of MLV pseudotyped HIV1 NL4-3 expressing integrase G140S/Q148K mutant; format: functional, organism-based
[57] = system: Canis familiaris; assay: Clearance in dog at 0.1 mg/kg, iv; format: ADME, organism-based, Canis lupus familiaris; set-up: dose 0.1 mg/kg, route intravenous; conditions: in vivo
[58] = Selectivity ratio of CC50 for HIV1 NL4-3 infected in human MT2 cells to IC50 for human MT2 cells; format: ADME, cell-based; conditions: read-out: Ratio CC50/IC50
[59] = system: Human immunodeficiency virus 1; assay: Resistance ratio of IC50 for MLV pseudotyped HIV1 NL4-3 expressing integrase E138A mutant to IC50 for MLV pseudotyped HIV1 NL4-3 expressing wild type integrase; format: functional
[60] = Plasma protein binding in dog; format: ADME, cell-free, Canis lupus familiaris; conditions: read-out: PPB (converted)
[61] = system: Human immunodeficiency virus 1; assay: Antiviral activity against HIV1 infected in human MT2 cells assessed as emergence of breakthrough at 10 times IC50; format: functional, organism-based

Cc1cn([C@H]2CC[C@@H](COP(=O)(O)OP(=O)(O)OP(=O)(O)O)O2)c(=O)[nH]c1=O
IC50 [1]: 7170 nM
IC50 [2]: 1960 nM

COc1cc(F)ccc1Cn1ccc2c3c(ncc21)C(=O)N(O)CC3 [PF-04776548]
EC50 [3]: 0.84 nM
IC50 [1]: > 100000 nM
Activity [4]: Non-toxic
Vd [5]: 2 L/kg
clearance [6]: 18 mL/min/kg
Ratio IC50 [7]: <10
IC50 [8]: 1.5 nM
pKa [9]: 7.6
Ratio IC50 [10]: <10
Vd [11]: 5.7 L/kg
Ratio IC50 [12]: <10
Drug metabolism [13]: Active
half-life [14]: 1.2 h
fraction unbound [15]: 0.09
EC50 [16]: 0.15 nM
Activity [17]: Not Active
microsomal CLint [18]: 8.3 µL/min/mg
clearance [19]: 98 mL/min/kg
microsomal CLint [20]: 28 µL/min/mg
hepatocyte CLint [21]: 33 µL/min/1e6 cells
EC50 [22]: 0.84 nM
bioavailability [23]: 1%
hepatocyte CLint [24]: 32.7 µL/min/1e6 cells
microsomal CLint [25]: 43 µL/min/mg
Vd [26]: 3 L/kg
Ratio IC50 [27]: <10
Ratio IC50 [28]: <10
EC50 [29]: 0.48 nM
Ratio IC50 [30]: <10
IC50 [31]: 40.5 nM
half-life [32]: 2.8 h
Ratio IC50 [33]: <10
Ratio IC50 [34]: <10
hepatocyte CLint [35]: 17 µL/min/1e6 cells
Ratio IC50 [36]: <10
Ratio IC50 [37]: <10
Ratio IC50 [38]: <10
half-life [39]: 0.3 h
fraction unbound [40]: 0.08
Ratio IC50 [41]: <10
Ratio IC50 [42]: <10
IC50 [43]: 7100 nM
microsomal CLint [44]: 26 µL/min/mg
EC50 [45]: 0.37 nM
Ratio IC50 [46]: <10
microsomal CLint [47]: 21 µL/min/mg
logD [48]: 2.1
EC50 [49]: 2.22 nM
EC50 [50]: 0.61 nM
EC50 [51]: 6.68 nM
Ratio IC50 [52]: <10
CC50 at 72 h [53]: 7360 nM
EC50 [54]: 1.68 nM
IC50 [2]: > 100000 nM
EC50 [55]: 0.44 nM
inhibition [56]: inactive
clearance [57]: 24 mL/min/kg
selectivity ratio [58]: 4800
Ratio IC50 [59]: <10
fraction unbound [60]: 0.16
Activity [61]: Active
